From ChEMBL document CHEMBL3733935, “Pyrazolylbenzothiazole derivatives and their use as therapeutic agents” (2013)
Activity calls are given as the source filed them.

Columns and labels:
Assay type in all cases: functional, cell-based
Mus musculus [1] = species: Mus musculus; experiment: Cytoprotective activity against PAN-induced toxicity in mouse K5P5 cells assessed as increase in cell size at 2.5 to 25 uM after 48 to 72 hrs by crystal violet staining assay
Mus musculus [2] = species: Mus musculus; experiment: Cytoprotective activity against PAN-induced toxicity in mouse K5P5 cells assessed as increase in cell spreading at 2.5 to 25 uM after 48 to 72 hrs by crystal violet staining assay
Mus musculus [3] = species: Mus musculus; experiment: Cytoprotective activity against PAN-induced toxicity in mouse K5P5 cells assessed as increase in overall cell number at 2.5 to 25 uM after 48 to 72 hrs by crystal violet staining assay

Measured: Activity

COc1cc2sc(-c3c(-c4ccco4)n[nH]c3N)nc2cc1F
active: all assays above

Cc1[nH]nc(N)c1-c1nc2ccc(CN(C)C)cc2s1
active: all assays above

CNS(=O)(=O)c1ccc2nc(-c3c(N)n[nH]c3C)sc2c1
active: all assays above

Cc1[nH]nc(N)c1-c1nc2cc(F)c(S(N)(=O)=O)cc2s1
active: all assays above

Cc1[nH]nc(N)c1-c1nc2cc(F)c(S(=O)(=O)NCCO)cc2s1
active: all assays above
